Measured values published in US20240158446A1, “CYCLIC COMPOUND HAVING SELECTIVE INHIBITORY ACTION ON KRAS OVER HRAS AND NRAS” (CHUGAI SEIYAKU KABUSHIKI KAISHA, priority 2021, published 2024).
Where two headings read alike, the source gives them in different places. Where a SMILES comes first, the peptide text is derived from it. Bridges are numbered along the chain shown (N, C = ends). [ ]: non-standard residue; d: D form. The star is where a group is joined. hPhe(3-Cl-4-CF3) = N[C@@H](CCc1ccc(C(F)(F)F)c(Cl)c1)C(=O)O; NPrPhe(4-CF3) = CCCN[C@@H](Cc1ccc(C(F)(F)F)cc1)C(=O)O; NEtPhe(4-Me) = CCN[C@@H](Cc1ccc(C)cc1)C(=O)O; NMePhe(4-Me) = CN[C@@H](Cc1ccc(C)cc1)C(=O)O; Abu(4,4,4-F3) = N[C@@H](CC(F)(F)F)C(=O)O; NMeGly(cPent) = CN[C@H](C(=O)O)C1CCCC1; Hyp = O=C(O)[C@@H]1C[C@@H](O)CN1; NMeD = CN[C@@H](CC(=O)O)C(=O)O; NMeL = CN[C@@H](CC(C)C)C(=O)O; Morpholide = C1CN(*)CCO1; NMeA = CN[C@@H](C)C(=O)O; Ac5c = NC1(C(=O)O)CCCC1; Aze = O=C(O)[C@@H]1CCN1; Ac4c = NC1(C(=O)O)CCC1; NEtG = CCNCC(=O)O; Sar = CNCC(=O)O

How the values were obtained:
[1] = target: GDP-bound NRAS wild-type protein (Homo sapiens, UniProt P01111); assay: Binding to NRAS by surface plasmon resonance (SPR), Single Cycle Kinetics; conditions: SPR, GDP-bound NRAS wild-type protein vs GDP-bound KRAS wild-type protein
[2] = target: GDP-bound KRAS wild-type protein (Homo sapiens, UniProt P01116); assay: Binding to KRAS by surface plasmon resonance (SPR), Single Cycle Kinetics; conditions: GDP-bound KRAS wild-type protein, read-out: KRAS KD
[3] = target: GDP-bound HRAS wild-type protein (Homo sapiens, UniProt P01112); assay: Binding to HRAS by surface plasmon resonance (SPR), Single Cycle Kinetics; conditions: SPR, GDP-bound HRAS wild-type protein vs GDP-bound KRAS wild-type protein
[4] = SPR Single Cycle Kinetics, 1:1 binding model
[5] = SPR, Single Cycle Kinetics, 1:1 binding model

GDP-bound KRAS wild-type protein, sequence (P01116 whole entry): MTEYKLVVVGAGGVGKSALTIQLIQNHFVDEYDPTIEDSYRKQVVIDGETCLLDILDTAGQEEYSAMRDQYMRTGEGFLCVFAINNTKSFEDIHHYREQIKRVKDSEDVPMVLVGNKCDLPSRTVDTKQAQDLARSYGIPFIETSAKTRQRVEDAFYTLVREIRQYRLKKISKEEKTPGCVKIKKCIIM
GDP-bound HRAS wild-type protein, sequence (P01112 whole entry): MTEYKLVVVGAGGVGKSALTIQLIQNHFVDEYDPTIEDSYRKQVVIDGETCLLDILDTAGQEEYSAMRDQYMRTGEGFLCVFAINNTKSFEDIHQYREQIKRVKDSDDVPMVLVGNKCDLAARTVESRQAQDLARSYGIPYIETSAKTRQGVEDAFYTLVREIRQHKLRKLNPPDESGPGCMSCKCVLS
GDP-bound NRAS wild-type protein, sequence (P01111 whole entry): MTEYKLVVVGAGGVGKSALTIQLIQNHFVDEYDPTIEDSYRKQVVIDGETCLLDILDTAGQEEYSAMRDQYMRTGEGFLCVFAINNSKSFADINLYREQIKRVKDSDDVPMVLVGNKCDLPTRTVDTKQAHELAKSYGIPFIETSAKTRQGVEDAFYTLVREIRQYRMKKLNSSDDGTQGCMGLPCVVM

| SMILES | Kd ([2]; SPR, Single Cycle Kinetics) | Kd [2, 4] | NRAS/KRAS (ratio of KD value for NRAS to KD value for KRAS) [1] | HRAS/KRAS (ratio of KD value for HRAS to KD value for KRAS) [3] | other results |
| --- | --- | --- | --- | --- | --- |
| CCC[C@H]1C(=O)N[C@@H]([C@@H](C)CC)C(=O)N2CCC[C@H]2C(=O)N(C)[C@H]2C/C=C\CCN(C2=O)[C@@H](CC2CCCCC2)C(=O)N(C)CC(=O)N[C@@H](CCc2ccc(C(F)(F)F)c(OC)c2)C(=O)N2C[C@H](OCC)C[C@H]2C(=O)N(C)C2(CCC2)C(=O)N(C)[C@@H](C2CCCC2)C(=O)N(C)[C@H](C(=O)N(C)C)CC(=O)N1C [PP2344] | 0.95 nM | – | A (a compound having 10 or more and less than 20 is denoted as A) | A (a compound having 10 or more and less than 20 is denoted as A) | – |
| CCO[C@@H]1C[C@H]2C(=O)NC3(CCC3)C(=O)N(C)[C@@H](C3CCCC3)C(=O)N(C)[C@H](C(=O)N(C)C)CC(=O)N(C)[C@@H](CC)C(=O)N[C@@H]([C@@H](C)CC)C(=O)N(C)CC(=O)N(C)[C@H]3CCCCCN(C3=O)[C@@H](Cc3ccc(F)c(OC)c3)C(=O)N(C)CC(=O)N[C@@H](CCc3cc(F)c(C(F)(F)F)c(F)c3)C(=O)N2C1 [PP0915] | 0.14 nM | – | B (a compound having 3 or more and less than 10 is denoted as B) | B (a compound having 3 or more and less than 10 is denoted as B) | – |
| CCO[C@@H]1C[C@H]2C(=O)NC3(CCC3)C(=O)N(C)[C@@H](C3CCCC3)C(=O)N(C)[C@H](C(=O)N(C)C)CC(=O)N(C)[C@@H](CC)C(=O)N[C@@H]([C@@H](C)CC)C(=O)N(C)CC(=O)N(C)[C@H]3CCCCCN(C3=O)[C@@H](Cc3ccc(C(F)(F)F)cc3)C(=O)N(C)CC(=O)N[C@@H](CCc3cc(Cl)c(C(F)(F)F)c(Cl)c3)C(=O)N2C1 [PP0989] | 1.3 nM | – | B (a compound having 3 or more and less than 10 is denoted as B) | B (a compound having 3 or more and less than 10 is denoted as B) | – |
| CC[C@H](C)[C@@H]1NC(=O)[C@H](CC)N(C)C(=O)C[C@@H](C(=O)N(C)C)N(C)C(=O)[C@H](C2CCCC2)N(C)C(=O)C2(CCC2)NC(=O)[C@@H]2C[C@H](OC)CN2C(=O)[C@H](CCc2cc(F)c(C(F)(F)F)c(F)c2)NC(=O)CN(C)C(=O)[C@H](Cc2ccc(C(F)(F)F)cc2)N2CC/C=C\C[C@@H](C2=O)N(C)C(=O)CN(C)C1=O [PP1128, (2S,8S,12S,14S,20S,23S,27S,30S,36S,38Z)-20-cyclopentyl-8-[2-[3,5-difluoro-4-(trifluoromethyl)phenyl]ethyl]-27-ethyl-12-methoxy-N,N,4,19,22,26,32,35-octamethyl-30-[(1S)-1-methylpropyl]-3,6,9,15,18,21,25,28,31,34,42-undecaoxo-2-[[4-(trifluoromethyl)phenyl]methyl]spiro[1,4,7,10,16,19,22,26,29,32,35-undecazatricyclo[34.5.1.0^10,14]dotetracont-38-ene-17,1′-cyclobutane]-23-carboxamide] | 0.12 nM | – | AA (a compound having 20 or more is denoted as AA) | A (a compound having 10 or more and less than 20 is denoted as A) | – |
| CCCN1C(=O)CN(C)C(=O)CN(CC)C(=O)[C@H]([C@@H](C)CC)NC(=O)[C@H](CC(C)C)N(C)C(=O)C[C@@H](C(=O)N(C)C)NC(=O)[C@H](C2CCCC2)N(C)C(=O)C2(CCC2)NC(=O)[C@@H]2C[C@@H](OCC)CN2C(=O)[C@H](CCc2ccc(C(F)(F)F)c(Cl)c2)NC(=O)CN(C)C(=O)[C@@H]1Cc1ccc(C(F)(F)F)cc1 [PP0372] ([NMeL]I[NEtG][Sar][NPrPhe(4-CF3)][Sar][hPhe(3-Cl-4-CF3)][Hyp](Et)[Ac4c][NMeGly(cPent)]D-NMe2; lactam N-11) | – | 0.79 nM | B (a compound having 3 or more and less than 10 is denoted as B) | B (a compound having 3 or more and less than 10 is denoted as B) | – |
| CCO[C@@H]1C[C@H]2C(=O)NC3(CCC3)C(=O)N(C)[C@@H](C3CCCC3)C(=O)N(C)[C@H](C(=O)N(C)C)CC(=O)N(C)[C@@H](CC(C)C)C(=O)N[C@@H]([C@@H](C)CC)C(=O)N(C)CC(=O)N(C)[C@H]3C/C=C\CCN(C3=O)[C@@H](Cc3ccc(F)cc3)C(=O)N(C)CC(=O)N[C@@H](CCc3cc(F)c(C(F)(F)F)c(F)c3)C(=O)N2C1 [PP1488, (2S,8S,12R,14S,20S,23S,27S,30S,36S,38Z)-20-cyclopentyl-8-[2-[3,5-difluoro-4-(trifluoromethyl)phenyl]ethyl]-12-ethoxy-2-[(4-fluorophenyl)methyl]-27-isobutyl-N,N,4,19,22,26,32,35-octamethyl-30-[(1S)-1-methylpropyl]-3,6,9,15,18,21,25,28,31,34,42-undecaoxo-spiro[1,4,7,10,16,19,22,26,29,32,35-undecazatricyclo[34.5.1.0^10,14]dotetracont-38-ene-17,1′-cyclobutane]-23-carboxamide] | – | – | – | – | NRAS/KRAS (ratio of KD value for NRAS to KD value for KRAS) ([1]; KD ratio class): A (a compound having 10 or more and less than 20 is denoted as A); Kd [2, 5]: 0.081 nM; HRAS/KRAS (ratio of KD value for HRAS to KD value for KRAS) ([3]; KD ratio class): B (a compound having 3 or more and less than 10 is denoted as B) |
| CCO[C@@H]1C[C@H]2C(=O)NC3(CC(F)(F)C3)C(=O)N(C)[C@@H](C(CC)CC)C(=O)N(C)C(C(C)C)CC(=O)N(C)[C@@H](CC)C(=O)N[C@@H]([C@@H](C)CC)C(=O)N(C)CC(=O)N(C)[C@H]3C/C=C\CCN(C3=O)[C@@H](Cc3ccc(C(F)(F)F)cc3)C(=O)N(C)CC(=O)N[C@@H](CCc3cc(F)c(C(F)(F)F)c(F)c3)C(=O)N2C1 (stereo partly drawn) [PP1591] | – | – | – | – | NRAS/KRAS (ratio of KD value for NRAS to KD value for KRAS) ([1]; KD ratio class): A (a compound having 10 or more and less than 20 is denoted as A); Kd [2, 5]: 4.6 nM; HRAS/KRAS (ratio of KD value for HRAS to KD value for KRAS) ([3]; KD ratio class): A (a compound having 10 or more and less than 20 is denoted as A) |

Continued, in another order:

| Kd ([2]; SPR, Single Cycle Kinetics) | Kd [2, 4] | SMILES | NRAS/KRAS (ratio of KD value for NRAS to KD value for KRAS) [1] | HRAS/KRAS (ratio of KD value for HRAS to KD value for KRAS) [3] | other results |
| --- | --- | --- | --- | --- | --- |
| – | 0.14 nM | CC[C@H](C)[C@@H]1NC(=O)[C@H](CC(C)C)N(C)C(=O)C[C@@H](C(=O)N2CCOCC2)N(C)C(=O)[C@H](C2CCCC2)N(C)C(=O)C2(CCCC2)NC(=O)[C@@H]2CCCN2C(=O)[C@H](CCc2ccc(C(F)(F)F)c(Cl)c2)NC(=O)CN(C)C(=O)[C@H](Cc2ccc(C)cc2)N(C)C(=O)[C@@H]2CCN2C(=O)[C@H](C)N(C)C1=O [PP0001] ([NMeL]I[NMeA][Aze][NMePhe(4-Me)][Sar][hPhe(3-Cl-4-CF3)]P[Ac5c][NMeGly(cPent)][NMeD]-Morpholide; lactam N-11) | C (A compound having a KD ratio of 0.1 or more and less than 3 is denoted as C) | C (A compound having a KD ratio of 0.1 or more and less than 3 is denoted as C) | – |
| – | 0.077 nM | CC[C@H](C)[C@@H]1NC(=O)[C@H](CC(C)C)N(C)C(=O)C[C@@H](C(=O)N2CCOCC2)N(C)C(=O)[C@H](C2CCCC2)N(C)C(=O)C2(CCCC2)NC(=O)[C@@H]2CCCN2C(=O)[C@H](CCc2ccc(C(F)(F)F)c(Cl)c2)NC(=O)CN(C)C(=O)[C@H](Cc2ccc(C)cc2)N(C)C(=O)CN(C)C(=O)CN(C)C1=O [PP0018] ([NMeL]I[Sar][Sar][NMePhe(4-Me)][Sar][hPhe(3-Cl-4-CF3)]P[Ac5c][NMeGly(cPent)][NMeD]-Morpholide; lactam N-11) | C (A compound having a KD ratio of 0.1 or more and less than 3 is denoted as C) | C (A compound having a KD ratio of 0.1 or more and less than 3 is denoted as C) | – |
| – | 0.073 nM | CC[C@H](C)[C@@H]1NC(=O)[C@H](CC(C)C)N(C)C(=O)C[C@@H](C(=O)N2CCOCC2)N(C)C(=O)[C@H](C2CCCC2)N(C)C(=O)C2(CCCC2)NC(=O)[C@@H]2C[C@@H](O)CN2C(=O)[C@H](CCc2ccc(C(F)(F)F)c(Cl)c2)NC(=O)CN(C)C(=O)[C@H](Cc2ccc(C)cc2)N(CC)C(=O)[C@@H]2CCN2C(=O)[C@H](C)N(C)C1=O [PP0013] ([NMeL]I[NMeA][Aze][NEtPhe(4-Me)][Sar][hPhe(3-Cl-4-CF3)][Hyp][Ac5c][NMeGly(cPent)][NMeD]-Morpholide; lactam N-11) | C (A compound having a KD ratio of 0.1 or more and less than 3 is denoted as C) | C (A compound having a KD ratio of 0.1 or more and less than 3 is denoted as C) | – |
| – | 0.76 nM | CCCN1C(=O)[C@@H]2CCN2C(=O)[C@H](C)N(C)C(=O)[C@H](CC(F)(F)F)NC(=O)[C@H](CC(C)C)N(C)C(=O)C[C@@H](C(=O)N2CCOCC2)N(C)C(=O)[C@H](C2CCCC2)N(C)C(=O)C2(CCCC2)NC(=O)[C@@H]2CCCN2C(=O)[C@H](CCc2ccc(C(F)(F)F)c(Cl)c2)NC(=O)CN(C)C(=O)[C@@H]1Cc1ccc(C(F)(F)F)cc1 [PP0270] ([NMeL][Abu(4,4,4-F3)][NMeA][Aze][NPrPhe(4-CF3)][Sar][hPhe(3-Cl-4-CF3)]P[Ac5c][NMeGly(cPent)][NMeD]-Morpholide; lactam N-11) | C (A compound having a KD ratio of 0.1 or more and less than 3 is denoted as C) | B (a compound having 3 or more and less than 10 is denoted as B) | – |
| – | 0.029 nM | CCO[C@@H]1C[C@H]2C(=O)NC3(CCC3)C(=O)N(C)[C@@H](C3CCCC3)C(=O)N(C)[C@H](C(=O)N3CCOCC3)CC(=O)N(C)[C@@H](CC(C)C)C(=O)N[C@@H]([C@@H](C)CC)C(=O)N(C)CC(=O)N(C)[C@H]3CCCCN(C3=O)[C@@H](Cc3ccc(C(F)(F)F)cc3)C(=O)N(C)CC(=O)N[C@@H](CCc3cc(F)c(C(F)(F)F)c(F)c3)C(=O)N2C1 [PP0578] | – | – | NRAS/KRAS (ratio of KD value with respect to NRAS to KD value with respect to KRAS) [1]: B (a compound having 3 or more and less than 10 is denoted as B); HRAS/KRAS (ratio of KD value with respect to HRAS to KD value with respect to KRAS) [3]: B (a compound having 3 or more and less than 10 is denoted as B) |
